{"source": "ChEMBL document CHEMBL4619822", "about": "“Novel Cyclic Tetramer Compounds as PCSK9 Inhibitors for Treating Metabolic Disorders” (ACS Med Chem Lett, 2020)", "data": [{"biological_target": "Proprotein convertase subtilisin/kexin type 9 (Homo sapiens) (UniProt Q8NBP7)", "sequence (Q8NBP7 31-152 limits assumed)": "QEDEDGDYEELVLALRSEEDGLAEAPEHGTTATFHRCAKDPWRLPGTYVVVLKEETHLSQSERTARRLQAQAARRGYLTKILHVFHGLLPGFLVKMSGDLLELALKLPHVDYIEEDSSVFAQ", "sequence (Q8NBP7 153-692 limits assumed)": "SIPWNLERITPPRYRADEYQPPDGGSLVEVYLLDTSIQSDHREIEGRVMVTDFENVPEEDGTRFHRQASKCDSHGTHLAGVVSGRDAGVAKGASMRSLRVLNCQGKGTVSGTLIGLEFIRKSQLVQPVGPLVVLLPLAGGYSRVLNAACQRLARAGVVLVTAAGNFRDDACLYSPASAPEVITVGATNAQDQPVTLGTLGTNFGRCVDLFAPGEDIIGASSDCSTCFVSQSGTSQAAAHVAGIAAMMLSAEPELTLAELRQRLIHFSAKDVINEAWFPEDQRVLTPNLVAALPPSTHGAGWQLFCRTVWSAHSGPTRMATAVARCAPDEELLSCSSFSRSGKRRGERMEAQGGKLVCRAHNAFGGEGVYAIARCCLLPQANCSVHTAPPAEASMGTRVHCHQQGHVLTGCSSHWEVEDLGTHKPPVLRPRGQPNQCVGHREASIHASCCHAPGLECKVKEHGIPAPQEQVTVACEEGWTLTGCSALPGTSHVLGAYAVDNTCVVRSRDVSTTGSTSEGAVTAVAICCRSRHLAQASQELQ", "test": "Inhibition of human PCSK9 by Alexa Fluor 647 staining based TR-FRET assay relative to control", "units": {"Imax": "%"}, "values": [{"smiles": "C[C@H]1C(=O)N[C@@H](CO)C(=O)N[C@@]2(Cc3ccc(Cl)cc3)CCCN(C2)C(=O)[C@H](CC2CC2)CC(=O)N1Cc1c(F)cc(Cl)cc1Oc1ccc(-c2cnc(CNC3CCC3)n2C)cc1", "Imax": 100}, {"smiles": "C[C@H]1C(=O)N[C@@H](CO)C(=O)N[C@@]2(Cc3ccc(Cl)cc3)CCCN(C2)C(=O)[C@H](Cc2ccccc2)CC(=O)N1Cc1ccc(Cl)c(F)c1Oc1ccc(-c2cnc(CN(C)C)n2C)cc1", "Imax": 101}, {"smiles": "COC[C@@H]1NC(=O)[C@H](C)N(Cc2ccc(Cl)cc2Oc2ccc(-c3cnc(CN(C)C)n3C)nc2)C(=O)C[C@@H](CC(F)(F)F)C(=O)N2CCC[C@@](Cc3ccc(Cl)cc3)(C2)N(C)C1=O", "Imax": 113}, {"smiles": "COC[C@@H]1NC(=O)[C@H](C)N(Cc2ncc(Cl)cc2Oc2ccc(-c3cnc(CN(C)C)n3C)cc2)C(=O)C[C@@H](Cc2ccccc2)C(=O)N2CCC[C@@](Cc3ccc(Cl)cc3)(C2)NC1=O", "Imax": 103}, {"smiles": "CNCc1ncc(-c2ccc(Oc3cc(Cl)ccc3CN3C(=O)C[C@@H](Cc4ccccc4)C(=O)N4CCC[C@@](Cc5ccc(Cl)cc5)(C4)NC(=O)[C@H](CO)NC(=O)[C@@H]3C)cc2)n1C", "Imax": 105}, {"smiles": "CNCc1ncc(-c2ccc(Oc3cc(Cl)cc(F)c3CN3C(=O)C[C@@H](CC(F)(F)F)C(=O)N4CCC[C@@](Cc5ccc(Cl)cc5)(C4)N(C)C(=O)[C@H](COC)NC(=O)[C@@H]3C)cc2)n1C", "Imax": 105}]}]}
